The results in this text go back to PMC6030240 (Molecules and Cells, 2018).

The IC50 is the concentration needed to halve the response being measured.

Where two headings read alike, the source gives them in different places.

Assay [1] deals with T1, Spleen tyrosine kinase (SYK) (Homo sapiens, UniProt P43405). The assay can be described thus: co-crystal structure at […] Å. The format is biochemical.
For assay [2], the target named is T1, Spleen tyrosine kinase (SYK). The assay can be described thus: co-crystal structure at […] Å. The format is biochemical. The source holds these as a separate data set.

Consider `CS(=O)(=O)c1ccc(Nc2nc(N[C@H]3CCCC[C@@H]3N)nc3cc[nH]c(=O)c23)cc1` [SKI-O-85, (1S,2S)-2-((4-((4-(methylsulfonyl)phenyl)amino)-5-oxo-5,6-dihydropyrido[4,3-d]pyrimidin-2-yl)amino)cyclohexan-1-aminium], for which, in assay [1], 0.211 µM corresponded to half-maximal inhibition (IC50).

As to `Cn1ncc2cc(Nc3nc(N4CCC(O)CC4)nc4cc[nH]c(=O)c34)ccc21` [SKI-G-618, 2-(4-hydroxypiperidin-1-yl)-4-((1-methyl-1H-indazol-5-yl)amino)pyrido[4,3-d]pyrimidin-5(6H)-one], the IC50 in assay [2] is 0.0177 µM.
